Source: US10919916B2, “Boron-containing small molecules” (Bill & Melinda Gates Foundation, priority 2016, dated 2021)
In brackets after ≈: the same amount, converted by molar mass.

Legend:
Type in all cases: cell-based
[1] = tested on: Wolbachia pipientis in C6/36 cell line; experiment: Anti-Wolbachia high-content assay; details: C6/36 (wAlbB) cells, 7 days at 26° C., 50% reduction of Wolbachia, read-out: EC50 Wolbachia pipientis in C6/36 cell line
Protocol: After 15 minutes, all media was removed from each well and fresh media (no stain) was added. Imaging of each well was accomplished using a Perkin Elmer Operetta high-content imaging system. Five fields per well were imaged using a confocal 60× objective with the Fluorescein filter (excitation filter: 460-490 nm; emission filter: 500-550 nm). Images were analyzed using the Perkin Elmer Harmony software to score each intact cell on the basis of texture complexity of the cytoplasm. Full details can be found in: […]. et al, J. Biomol.

[2] = tested on: Streptococcus pneumoniae (ATCC 49619); experiment: Antibacterial MIC assay (microbroth dilution, CLSI); details: ATCC49619, microbroth dilution, 3% lysed horse blood, 35° C. for 16-20 hours, read-out: MIC Streptococcus pneumoniae (ATCC 49619)
Summary of the method: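 S. pneumoniae at 5×10^5 CFU/mL (from 0.5 McFarland saline suspension) was tested against 2-fold serial compound dilutions in cation-adjusted Mueller-Hinton broth plus 3% lysed horse blood, per CLSI M07-A10/M100-S25 microdilution guidelines.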

[3] = tested on: Staphylococcus aureus, MRSA (ATCC 33591); experiment: as above; details: microbroth dilution, cation-adjusted Mueller-Hinton broth, 35° C. for 16-20 hours, read-out: MIC Staphylococcus aureus, MRSA (ATCC 33591)
Summary of the method: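 Compound 2-fold dilution series tested against 5×10^5 CFU/mL bacteria prepared from 0.5 McFarland saline suspensions of overnight colonies. Medium was cation-adjusted Mueller-Hinton broth, supplemented with 3% lysed horse blood for the fastidious pneumococcus. Protocol followed CLSI M07-A10 and M100-S25.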

SMILES	EC50 [1] [µM]	MIC [2] [mg/L]	MIC [3] [mg/L]
C=C[C@]1(C)C[C@@H](OC(=O)COc2ccc3c(c2F)B(O)OC3)[C@]2(C)[C@H](C)CC[C@]3(C[C@H](O)C(=O)[C@H]32)[C@@H](C)[C@@H]1O [Compound 36, (2S,3aR,4R,5R,7S,8S,9R,9aS,12R)-2,8-dihydroxy-4,7,9,12-tetramethyl-3-oxo-7-vinyldecahydro-4,9a-propanocyclopenta[8]annulen-5-yl 2-((7-fluoro-1-hydroxy-1,3-dihydrobenzo[c][1,2]oxaborol-6-yl)oxy)acetate]	0.193	0.5 to 2 (≈ 0.918 to 3.67 µM)	< 0.25
C=C[C@]1(C)C[C@@H](OC(=O)COc2cc(CNC(=O)OC(C)(C)C)c3c(c2)B(O)OC3)[C@]2(C)[C@H](C)CC[C@]3(C[C@H](O)C(=O)[C@H]32)[C@@H](C)[C@@H]1O [Compound 41, (2S,3aR,4R,5R,7S,8S,9R,9aS,12R)-2,8-dihydroxy-4,7,9,12-tetramethyl-3-oxo-7-vinyldecahydro-4,9a-propanocyclopenta[8]annulen-5-yl 2-((4-(((tert-butoxycarbonyl)amino)methyl)-1-hydroxy-1,3-dihydrobenzo[c][1,2]oxaborol-6-yl)oxy)acetate]	0.625	0.5 to 2 (≈ 0.763 to 3.05 µM)	0.5 to 2 (≈ 0.763 to 3.05 µM)
C=C[C@]1(C)C[C@@H](OC(=O)COc2ccc3c(c2)B(O)OC3CNC(C)=O)[C@]2(C)[C@H](C)CC[C@]3(CCC(=O)[C@H]32)[C@@H](C)[C@@H]1O (stereo partly drawn) [Compound 22, (3aR,4R,5R,7S,8S,9R,9aS,12R)-8-hydroxy-4,7,9,12-tetramethyl-3-oxo-7-vinyldecahydro-4,9a-propanocyclopenta[8]annulen-5-yl 2-((3-(acetamidomethyl)-1-hydroxy-1,3-dihydrobenzo[c][1,2]oxaborol-6-yl)oxy)acetate]	> 1	0.5 to 2 (≈ 0.86 to 3.44 µM)	0.5 to 2 (≈ 0.86 to 3.44 µM)
C=C[C@]1(C)C[C@@H](OC(=O)COc2ccc3c(c2)B(O)OC3CC(=O)OC)[C@]2(C)[C@H](C)CC[C@]3(CCC(=O)[C@H]32)[C@@H](C)[C@@H]1O (stereo partly drawn) [Compound 26, (3aR,4R,5R,7S,8S,9R,9aS,12R)-8-hydroxy-4,7,9,12-tetramethyl-3-oxo-7-vinyldecahydro-4,9a-propanocyclopenta[8]annulen-5-yl 2-((1-hydroxy-3-(2-methoxy-2-oxoethyl)-1,3-dihydrobenzo[c][1,2]oxaborol-6-yl)oxy)acetate]	> 1	0.5 to 2 (≈ 0.858 to 3.43 µM)	< 0.25
C=C[C@]1(C)C[C@@H](OC(=O)CNc2cnc3c(c2)B(O)OC3)[C@]2(C)[C@H](C)CC[C@]3(CCC(=O)[C@H]32)[C@@H](C)[C@@H]1O [Compound 102, (3aR,4R,5R,7S,8S,9R,9aS,12R)-8-hydroxy-4,7,9,12-tetramethyl-3-oxo-7-vinyldecahydro-4,9a-propanocyclopenta[8]annulen-5-yl (1-hydroxy-1,3-dihydro-[1,2]oxaborolo[4,3-b]pyridin-6-yl)glycinate]	> 1	> 64	> 64
C=C[C@]1(C)C[C@@H](OC(=O)COc2ccc3c(c2)B(O)N(C(=O)OC)N=C3)[C@]2(C)[C@H](C)CC[C@]3(C[C@H](F)C(=O)[C@H]32)[C@@H](C)[C@@H]1O [Compound 92, Methyl 7-(2-(((2S,3aR,4R,5R,7S,8S,9R,9aS,12R)-2-fluoro-8-hydroxy-4,7,9,12-tetramethyl-3-oxo-7-vinyldecahydro-4,9a-propanocyclopenta[8]annulen-5-yl)oxy)-2-oxoethoxy)-1-hydroxybenzo[d][1,2,3]diazaborinine-2(1H)-carboxylate]	0.003	0.5 to 2 (≈ 0.835 to 3.34 µM)	< 0.25
C=C[C@]1(C)C[C@@H](OC(=O)COc2ccc3c(c2)B(O)N(C(=O)OC(C)(C)C)N=C3)[C@]2(C)[C@H](C)CC[C@]3(C[C@H](F)C(=O)[C@H]32)[C@@H](C)[C@@H]1O [Compound 73, tert-butyl 7-(2-(((2S,3aR,4R,5R,7S,8S,9R,9aS,12R)-2-fluoro-8-hydroxy-4,7,9,12-tetramethyl-3-oxo-7-vinyldecahydro-4,9a-propanocyclopenta[8]annulen-5-yl)oxy)-2-oxoethoxy)-1-hydroxybenzo[d][1,2,3]diazaborinine-2(1H)-carboxylate]	0.001	< 0.25	< 0.25
C=C[C@]1(C)C[C@@H](OC(=O)COc2ccc3c(c2F)B(O)N(S(C)(=O)=O)N=C3)[C@]2(C)[C@H](C)CC[C@]3(C[C@H](O)C(=O)[C@H]32)[C@@H](C)[C@@H]1O [Compound 77, (2S,3aR,4R,5R,7S,8S,9R,9aS,12R)-2,8-dihydroxy-4,7,9,12-tetramethyl-3-oxo-7-vinyldecahydro-4,9a-propanocyclopenta[8]annulen-5-yl 2-((8-fluoro-1-hydroxy-2-(methylsulfonyl)-1,2-dihydrobenzo[d][1,2,3]diazaborinin-7-yl)oxy)acetate]	> 1	0.5 to 2 (≈ 0.788 to 3.15 µM)	4 to 32 (≈ 6.3 to 50.4 µM)
C=C[C@]1(C)C[C@@H](OC(=O)COc2ccc3c(c2)B(O)N(C(C)=O)N=C3)[C@]2(C)[C@H](C)CC[C@]3(C[C@H](O)C(=O)[C@H]32)[C@@H](C)[C@@H]1O [Compound 86, (2S,3aR,4R,5R,7S,8S,9R,9aS,12R)-2,8-dihydroxy-4,7,9,12-tetramethyl-3-oxo-7-vinyldecahydro-4,9a-propanocyclopenta[8]annulen-5-yl 2-((2-acetyl-1-hydroxy-1,2-dihydrobenzo[d][1,2,3]diazaborinin-7-yl)oxy)acetate]	0.001	0.5 to 2 (≈ 0.861 to 3.45 µM)	< 0.25
C=C[C@]1(C)C[C@@H](OC(=O)COc2ccc3c(c2)B(O)OC3CC(=O)O)[C@]2(C)[C@H](C)CC[C@]3(CCC(=O)[C@H]32)[C@@H](C)[C@@H]1O (stereo partly drawn) [Compound 25, 2-(1-hydroxy-6-(2-(((3aR,4R,5R,7S,8S,9R,9aS,12R)-8-hydroxy-4,7,9,12-tetramethyl-3-oxo-7-vinyldecahydro-4,9a-propanocyclopenta[8]annulen-5-yl)oxy)-2-oxoethoxy)-1,3-dihydrobenzo[c][1,2]oxaborol-3-yl)acetic acid]	> 1	0.5 to 2 (≈ 0.88 to 3.52 µM)	0.5 to 2 (≈ 0.88 to 3.52 µM)
C=C[C@]1(C)C[C@@H](OC(=O)COc2cc3c(c(C4CCN(C(=O)OC(C)(C)C)CC4)c2)COB3O)[C@]2(C)[C@H](C)CC[C@]3(CCC(=O)[C@H]32)[C@@H](C)[C@@H]1O [Compound 17, tert-butyl 4-(1-hydroxy-6-(2-(((3aR,4R,5R,7S,8S,9R,9aS,12R)-8-hydroxy-4,7,9,12-tetramethyl-3-oxo-7-vinyldecahydro-4,9a-propanocyclopenta[8]annulen-5-yl)oxy)-2-oxoethoxy)-1,3-dihydrobenzo[c][1,2]oxaborol-4-yl)piperidine-1-carboxylate]	0.623	< 0.25	0.5 to 2 (≈ 0.721 to 2.88 µM)
C=C[C@]1(C)C[C@@H](OC(=O)COc2ccc3c(c2)B(O)OC3CC(=O)OC(C)(C)C)[C@]2(C)[C@H](C)CC[C@]3(CCC(=O)[C@H]32)[C@@H](C)[C@@H]1O (stereo partly drawn) [Compound 24, tert-Butyl 2-(1-hydroxy-6-(2-(((3aR,4R,5R,7S,8S,9R,9aS,12R)-8-hydroxy-4,7,9,12-tetramethyl-3-oxo-7-vinyldecahydro-4,9a-propanocyclopenta[8]annulen-5-yl)oxy)-2-oxoethoxy)-1,3-dihydrobenzo[c][1,2]oxaborol-3-yl)acetate]	> 1	0.5 to 2 (≈ 0.801 to 3.2 µM)	< 0.25
C=C[C@]1(C)C[C@@H](OC(=O)COc2ccc(C3=CCOB3O)cc2)[C@]2(C)[C@H](C)CC[C@]3(CCC(=O)[C@H]32)[C@@H](C)[C@@H]1O [Compound 103, (3aR,4R,5R,7S,8S,9R,9aS,12R)-8-hydroxy-4,7,9,12-tetramethyl-3-oxo-7-vinyldecahydro-4,9a-propanocyclopenta[8]annulen-5-yl 2-(4-(2-hydroxy-2,5-dihydro-1,2-oxaborol-3-yl)phenoxy)acetate]	0.419	< 0.25	< 0.25
C=C[C@]1(C)C[C@@H](OC(=O)COc2ccc3c(c2F)B(O)OC3CNC(=O)OC(C)(C)C)[C@]2(C)[C@H](C)CC[C@]3(CCC(=O)[C@H]32)[C@@H](C)[C@@H]1O (stereo partly drawn) [Compound 28, (3aR,4R,5R,7S,8S,9R,9aS,12R)-8-hydroxy-4,7,9,12-tetramethyl-3-oxo-7-vinyldecahydro-4,9a-propanocyclopenta[8]annulen-5-yl 2-((3-(((tert-butoxycarbonyl)amino)methyl)-7-fluoro-1-hydroxy-1,3-dihydrobenzo[c][1,2]oxaborol-6-yl)oxy)acetate]	> 1	0.5 to 2 (≈ 0.76 to 3.04 µM)	0.5 to 2 (≈ 0.76 to 3.04 µM)
C=C[C@]1(C)C[C@@H](OC(=O)COc2cc3c(cc2F)COB3O)[C@]2(C)[C@H](C)CC[C@]3(C[C@H](O)C(=O)[C@H]32)[C@@H](C)[C@@H]1O [Compound 37, (2S,3aR,4R,5R,7S,8S,9R,9aS,12R)-2,8-dihydroxy-4,7,9,12-tetramethyl-3-oxo-7-vinyldecahydro-4,9a-propanocyclopenta[8]annulen-5-yl 2-((5-fluoro-1-hydroxy-1,3-dihydrobenzo[c][1,2]oxaborol-6-yl)oxy)acetate]	0.052	0.5 to 2 (≈ 0.918 to 3.67 µM)	< 0.25
